Experimental data taken from patent US9782399B2, “Pharmaceutical compositions which inhibit FKBP52-mediated regulation of androgen receptor function and methods of using same” (The United States of America, as represented by the …, priority 2009, dated 2017).

System: FKBP52-enhanced AR function
Test: AR-mediated luciferase reporter assay in 52KO MEF cells
Format: cell-based, murine
Conditions: compound 1 hour, then DHT 16 hours
Protocol: FIG. 5B is a bar graph showing data from an experiment where 52KO MEF cells were treated at 50% confluency with a range of concentrations of Compound 2, and cell numbers were counted by trypan blue exclusion after 24 hours. FIG. 5C depicts Western blots on the same cell lysates from FIG. 5B, with compound 2 concentrations starting at 0, and increasing from about 0.1, 1, 10, to 100 μM.
To further characterize the compounds of interest selected from the yeast library assay, the inventors created a mammalian model system, comprising a receptor-mediated luciferase reporter assay, using in a murine embryonic fibroblast cell line (MEF) which has the gene for FKBP52 knocked out (52KO MEFs). […] To control for specificity and general toxicity, the inventors assessed the effects of the inhibitors on receptor function in the absence of FKBP52. […] The half maximal lethal dose (LD50) was also determined for all cell types used in these studies. The LD50 was determined by performing dose response curves in which the measure of toxicity will be cell death (via trypan blue exclusion). […]
β-galactosidase activity was measured by addition of 100 μl Tropix Gal-Screen assay reagent (Applied Biosystems, Foster City, Calif.) to about 6 μl lysate in an opaque 96-well plate. […]

Cc1ccc(NC(=O)c2ccccc2C(=O)O)cc1C [Compound 1]
inhibition of FKBP52-enhanced AR function in mammalian cells: consistent from yeast to mammalian cells
